Results published in US20020183313A1, “1,4-benzodiazepinones and their uses as CCK antagonists” (Fujisawa Pharmaceutical Co., Ltd., priority 1996, published 2002).

Structure (SMILES) | melting point
Cc1cccc2c1N(CC(=O)c1ccccc1O)C(=O)C(NC(=O)Nc1cccc(-c3nnnn3C(c3ccccc3)(c3ccccc3)c3ccccc3)c1)N=C2c1ccccc1F (racemic) | 132.1 to 146 °C
Cc1cccc2c1N(CC(=O)c1ccccc1OCC(=O)O)C(=O)C(NC(=O)Nc1cccc(-c3nnn[nH]3)c1)N=C2c1ccccc1F (racemic) | 109.6 to 113 °C
Cc1cccc2c1N(CC(=O)N1CC3CCC(CC3)C1)C(=O)C(NC(=O)Nc1cccc(C=NO)c1)N=C2c1ccccc1F (racemic) | 196 to 199 °C
CC(=O)N(C(C)=O)c1ccccc1C(=O)CN1C(=O)C(NC(=O)Nc2cccc(-c3nnn[nH]3)c2)N=C(c2ccccc2F)c2cccc(C)c21 (racemic) | 192 to 216.6 °C (dec.)
Cc1cccc2c1N(CC(=O)N1CC3CCC(CC3)C1)CC(NC(=O)Nc1cccc(Br)c1)N=C2c1ccccc1F (racemic) | > 250 °C
CC(=NO)c1cccc(NC(=O)NC2N=C(c3ccccc3F)c3cccc(C)c3N(CC(=O)N3CC4CCC(CC4)C3)C2=O)c1 (racemic) | 199.1 to 207.8 °C
Cc1cccc(NC(=O)NC2N=C(C3CCCCC3)c3cccc(C)c3N(C)C2=O)c1 (racemic) | 196.4 to 197.5 °C
Cc1cccc(NC(=O)NC2N=C(c3ccccc3F)c3cccc(C)c3N(CC(=O)c3ccccc3C)C2=O)c1 (racemic) | 190.2 to 196.2 °C
Cc1ccccc1C(=O)CN1C(=O)C(NC(=O)Nc2cccc(-c3nnn[nH]3)c2)N=C(c2ccccc2F)c2cccc(C)c21 (racemic) | 215.8 to 220.3 °C
Cc1ccccc1C(=O)CN1C(=O)C(NC(=O)Nc2cccc(C(=O)O)c2)N=C(c2ccccc2F)c2cccc(C)c21 (racemic) | 168.1 to 176.3 °C
Cc1cccc(NC(=O)NC2N=C(c3ccccc3F)c3cccc(C(C)C)c3N(CC(=O)N3CC4CCC(CC4)C3)C2=O)c1 (racemic) | 183.3 to 186.8 °C
Cc1cccc2c1N(CC(=O)N1CC3CCC(CC3)C1)C(=O)C(NC(=O)Nc1cccc(O)c1)N=C2c1ccccc1F (racemic) | 192.8 to 203.9 °C
Cc1cccc2c1N(Cc1ccccn1)C(=O)C(NC(=O)Nc1cccc(-c3nnn[nH]3)c1)N=C2c1ccccc1F (racemic) | 173.9 to 182 °C
Cc1cccc2c1N(CC(=O)C(C)(C)C)C(=O)C(NC(=O)Nc1cccc(-c3nnn[nH]3)c1)N=C2c1ccccc1F (racemic) | 160.4 to 180.7 °C (dec.)
CC1=NC(NC(=O)Nc2cccc(C)n2)C(=O)N(CC(=O)N2CC3CCC(CC3)C2)c2c(C)cccc21 (racemic) | 150.8 to 152.1 °C
CC1=NC(NC(=O)Nc2cc(C)ccn2)C(=O)N(CC(=O)N2CC3CCC(CC3)C2)c2c(C)cccc21 (racemic) | 152 to 154.1 °C
CC1=NC(NC(=O)Nc2cccc(N(C)C)c2)C(=O)N(CC(=O)N2CC3CCC(CC3)C2)c2c(C)cccc21.Cl (racemic) | 190.9 to 193.1 °C
CC1=NC(NC(=O)Nc2cccc(C)c2)C(=O)N(CC(=O)N2CC3CCC(CC3)C2)c2c1cccc2N(C)C.Cl (racemic) | 216.5 to 218.7 °C
Cc1cccc2c1N(CC(=O)OC(C)(C)C)C(=O)C(NC(=O)Nc1cccc(-c3nnn[nH]3)c1)N=C2c1ccccc1F (racemic) | 151.4 to 174.2 °C (dec.)
Cc1cccc2c1N(CC(=O)C13CC4CC(CC(C4)C1)C3)C(=O)C(NC(=O)Nc1cccc(-c3nnn[nH]3)c1)N=C2c1ccccc1F (racemic) | 195 to 218.4 °C (dec.)
CC(=O)CN1C(=O)C(NC(=O)Nc2cccc(-c3nnn[nH]3)c2)N=C(c2ccccc2F)c2cccc(C)c21 (racemic) | 173.5 to 189.8 °C
Cc1cccc2c1N(CC(=O)c1cccc([N+](=O)[O-])c1)C(=O)C(NC(=O)Nc1cccc(-c3nnn[nH]3)c1)N=C2c1ccccc1F (racemic) | 194.4 to 198.1 °C
Cc1cccc2c1N(CC(=O)c1ccccc1[N+](=O)[O-])C(=O)C(NC(=O)Nc1cccc(-c3nnn[nH]3)c1)N=C2c1ccccc1F (racemic) | 192.2 to 197.1 °C
Cc1cccc(NC(=O)NC2N=C(C(C)C)c3cccc(C)c3N(CC(=O)N3CC4CCC(CC4)C3)C2=O)c1 (racemic) | 189.9 to 192.8 °C
CSc1cccc(NC(=O)NC2N=C(C)c3cccc(C)c3N(CC(=O)N3CC4CCC(CC4)C3)C2=O)c1 (racemic) | 237.2 to 238.5 °C
COc1cccc(NC(=O)NC2N=C(C)c3cccc(C)c3N(CC(=O)N3CC4CCC(CC4)C3)C2=O)c1 (racemic) | 169.6 to 170.7 °C
Cc1cccc(NC(=O)NC2N=C(CN3CC4CCC(CC4)C3)c3cccc(C)c3N(C)C2=O)c1 (racemic) | 145.6 to 149.2 °C
COCC1=NC(NC(=O)Nc2cccc(C)c2)C(=O)N(CC(=O)N2CC3CCC(CC3)C2)c2c(C)cccc21 (racemic) | 178.1 to 182.1 °C
Cc1cccc(NC(=O)NC2N=C(C3CC3)c3cccc(C)c3N(CC(=O)N3CCCCCCC3)C2=O)c1 (racemic) | 177.7 to 179.2 °C
CC(=O)OCC1=NC(NC(=O)Nc2cccc(C)c2)C(=O)N(CC(=O)N2CC3CCC(CC3)C2)c2c(C)cccc21 (racemic) | 133 to 134.5 °C

More lines, now with the values ahead:

melting point | Structure (SMILES)
115 to 120 °C | CCC1=NC(NC(=O)Nc2cccc(C)c2)C(=O)N(CC(=O)N2CC3CCC(CC3)C2)c2ccccc21 (racemic)
121 to 123 °C | CCCCC1=NC(NC(=O)Nc2cccc(C)c2)C(=O)N(CC(=O)N2CC3CCC(CC3)C2)c2ccccc21 (racemic)
218 to 222 °C (dec.) | O=C(Nc1cccc(-c2nnn[nH]2)c1)NC1N=C(CC2CCCCC2)c2ccccc2N(CC(=O)N2CC3CCC(CC3)C2)C1=O (racemic)
132 to 135 °C | CC(C)C1=NC(NC(=O)Nc2ccccc2)C(=O)N(CC(=O)N2CC3CCC(CC3)C2)c2ccccc21 (racemic)
138 to 140 °C | CC(C)C1=NC(NC(=O)NC2CCCCC2)C(=O)N(CC(=O)N2CC3CCC(CC3)C2)c2ccccc21 (racemic)
212.2 to 222.1 °C | CC(C)c1cccc2c1N(CC(=O)N1CC3CCC(CC3)C1)C(=O)C(NC(=O)Nc1cccc(-c3nnn[nH]3)c1)N=C2c1ccccc1F (racemic)
186.2 to 197.6 °C | Cc1cccc2c1N(CC(=O)N1CC3CCC(CC3)C1)C(=O)C(NC(=O)Nc1cccc(-c3nnn[nH]3)c1)N=C2C1CCCCC1 (racemic)
172 to 180.5 °C | O=C(Nc1cccc(-c2nnn[nH]2)c1)NC1N=C(c2ccccc2F)c2cccc(Cl)c2N(CC(=O)N2CC3CCC(CC3)C2)C1=O (racemic)
123 to 126 °C | Cc1cccc(NC(=O)NC2N=C(C(C)C)c3ccccc3N(CC(=O)N3CC4CCC(CC4)C3)C2=O)c1 (racemic)
168.1 to 171.1 °C | CC1=NC(NC(=O)Nc2cccc(Br)c2)C(=O)N(CC(=O)N2CC3CCC(CC3)C2)c2c(C)cccc21 (racemic)
181.2 to 185.1 °C | CC1=NC(NC(=O)Nc2cccc(Cl)c2)C(=O)N(CC(=O)N2CC3CCC(CC3)C2)c2c(C)cccc21 (racemic)
176.9 to 179.1 °C | CC1=NC(NC(=O)Nc2cccc(C)c2)C(=O)N(CC(=O)N2CC3CCC(CC3)C2)c2c(C)cccc21 (racemic)
150 to 153 °C | CC1=NC(NC(=O)Nc2cccc(C)c2)C(=O)N(CC(=O)N2CC3CCC(CC3)C2)c2ccccc21 (racemic)
134 to 135 °C | CSc1cccc(NC(=O)NC2N=C(C(C)C)c3ccccc3N(CC(=O)N3CC4CCC(CC4)C3)C2=O)c1 (racemic)
